# Test results published in patent US20180071242A1, “SUBSTITUTED ACYLANILIDES AND METHODS OF USE THEREOF” (University of Tennessee Research Foundation, priority 2006, published 2018).
# Test system: DMD (−/−) UTRN (−/−) mice
# Assay: Double knockout mouse model of Duchenne muscular dystrophy
# Details: 10 mg/kg/day, data cumulative across the SARM groups
smiles,measurement,value
"C[C@](O)(COc1ccc(C#N)cc1)C(=O)Nc1ccc(C#N)c(Cl)c1 [S-(I), (S)—N-(3-chloro-4-cyanophenyl)-3-(4-cyanophenoxy)-2-hydroxy-2-methylpropanamide]",Ability to be ambulatory (in words),enhanced the ability of these mice to be ambulatory
same,Deterioration of body weight (in words),delayed the deterioration
same,Deterioration of grip strength (in words),delayed the deterioration
same,Deterioration of lean mass (in words),delayed the deterioration
